From PubChem BioAssay (NCI)
Several values for one entry are separate records, joined by “and”; a condition that tells them apart may be missing. Equal entries are not always repeated.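 All cell lines were grown in 96-well plates and treated with compound for 48 hours. At the GI50, growth is halved. The concentration for full growth arrest is given as TGI.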

Experiments:
Assay in all cases: NCI tumour cell line growth inhibition, 48 h
HCT-116 colon = test system: HCT-116 colon
TK-10 renal = test system: TK-10 renal
NCI/ADR-RES ovarian = test system: NCI/ADR-RES ovarian
SK-MEL-5 melanoma = test system: SK-MEL-5 melanoma
HT29 colon = test system: HT29 colon
NCI-H460 lung = test system: NCI-H460 lung
NCI-H522 lung = test system: NCI-H522 lung
SK-OV-3 ovarian = test system: SK-OV-3 ovarian
HOP-62 NSCLC = test system: HOP-62 NSCLC
T-47D breast = test system: T-47D breast

| Compound | TGI (HCT-116 colon) | TGI (TK-10 renal) | TGI (NCI/ADR-RES ovarian) | TGI (SK-MEL-5 melanoma) | TGI (HT29 colon) | TGI (NCI-H460 lung) | TGI (NCI-H522 lung) | TGI (SK-OV-3 ovarian) | TGI (HOP-62 NSCLC) | TGI (T-47D breast) | GI50 (TK-10 renal) | GI50 (T-47D breast) |
| --- | --- | --- | --- | --- | --- | --- | --- | --- | --- | --- | --- | --- |
| NC(N)=N/N=C/c1nc2n(c1[N+](=O)[O-])CCS2 | 54.1 µM | > 100 µM | > 100 µM | 34.4 µM | > 100 µM | 48.4 µM | > 100 µM | > 100 µM | > 100 µM | 67.4 µM |  |  |
| COC(=O)c1c(O)ccc2c1c1c(n2Cc2ccccc2Cl)C(=O)c2ccccc2C1=O | 31.2 µM | 30.6 µM | 39.3 µM | 26.4 µM | 3.58 µM | 23.5 µM | 25.5 µM | 27.2 µM | 47.9 µM | 27.4 µM |  |  |
| COC(=O)/C(=C\Nc1cccc(C)n1)S(=O)(=O)c1ccc(C)cc1 | > 100 µM | > 100 µM | > 100 µM | > 100 µM | > 100 µM | > 100 µM | > 100 µM | > 100 µM | > 100 µM | > 100 µM |  |  |
| COC(=O)C1C/C(=C/N(C)C)C(=S)N1 (configuration not stated) | > 100 µM | > 100 µM | > 100 µM | > 100 µM | > 100 µM | 35.4 µM | > 100 µM | > 100 µM | > 100 µM | > 100 µM |  |  |
| O=C(c1ccccc1)N1CCN(C(=S)N(C(=O)c2ccccc2)c2ccccc2)C1=S | 12.6 µM | 16.6 µM | > 27.7 µM | 26.5 µM | 31.2 µM | 44.7 µM | 6.9 µM | 30.2 µM | 26.3 µM | > 31.9 µM |  |  |
| S=C(NC1=NCC(CN2CCN(c3ccccc3)CC2)O1)Nc1ccccc1 (configuration not stated) | > 100 µM | > 100 µM | > 100 µM | > 100 µM | > 100 µM | > 100 µM | > 100 µM | > 100 µM | > 100 µM | > 100 µM |  |  |
| CN(CCn1cnc2c1c(=O)n(C)c(=O)n2C)C1CCCCC1 | > 100 µM | > 100 µM | > 100 µM | > 100 µM | > 100 µM | > 100 µM | > 100 µM | > 100 µM | > 100 µM | > 100 µM |  |  |
| COC(=O)C(Cc1c(C2Nc3ccccc3C2CC(NC(=O)CNC(C)=O)C(=O)OC)[nH]c2ccccc12)NC(=O)CNC(C)=O (configuration not stated) | > 100 µM | > 100 µM | > 100 µM | > 100 µM | > 100 µM | > 100 µM | > 100 µM | > 100 µM | > 69.8 µM | > 100 µM |  |  |
| N/C(=N\S(=O)(=O)c1ccc(S(=O)(=O)c2ccccc2)s1)Nc1ccc(Cl)cc1 | 32.9 µM | 51.1 µM | 45.1 µM | 32.5 µM | 45.1 µM | 33.8 µM | 28.9 µM | > 100 µM | 39.3 µM | > 100 µM |  |  |
| CCC(CON(C)c1ccccc1)(SC)SC | > 100 µM | > 100 µM | > 100 µM | > 100 µM | > 100 µM | > 100 µM | > 100 µM | > 100 µM | > 100 µM | > 100 µM |  |  |
| Nc1nc(Cl)c(N)c(NCC2(CO)CC(OCc3ccccc3)C2)n1 (configuration not stated) | > 100 µM | > 100 µM | > 100 µM | > 100 µM | > 100 µM | > 100 µM | > 100 µM | > 100 µM | > 100 µM | > 100 µM |  |  |
| C[C@]12CC[C@H]3[C@@H](CC=C4C[C@@H](N5CCCC5)CC[C@@]43C)[C@@H]1C[C@H](N1CCOCC1)[C@@H]2O | > 100 µM | > 100 µM | > 100 µM | > 100 µM | > 100 µM | > 100 µM | > 100 µM | > 100 µM | > 100 µM | > 100 µM |  |  |
| CCCCC(C#N)(OP1(=O)OC(c2ccccc2)C(C)N1C)c1ccccc1 (configuration not stated) | 30.4 µM | 37.1 µM | 52 µM | 34.2 µM | 33.8 µM | 31 µM | 33.7 µM | 43.7 µM | 38.7 µM | 55.1 µM |  |  |
| COC(=O)NCCc1[nH]nc2c1C(=O)C=C(N1CCOCC1)C2=O | > 100 µM | > 100 µM | > 100 µM | > 100 µM | > 100 µM | > 100 µM | > 100 µM | > 100 µM | > 100 µM | > 100 µM |  |  |
| Cc1cnc2sn(-c3ccc(Oc4ccccc4)cc3)c(=O)c2c1 | 71.4 µM | 40.1 µM | 55.7 µM | 39.6 µM | 39.6 µM | 23.1 µM | 25.3 µM | > 100 µM | 36.7 µM | 37.7 µM |  |  |
| CC(=O)OC(/C=C/c1ccccc1)P1(=O)N(CC(C)(C)C)[C@@H]2CCCC[C@H]2N1CC(C)(C)C (some centres not stated) | 15 µM and 13.4 µM | 22.4 µM and 16.6 µM | 20.6 µM and 18.3 µM | 17.4 µM and 18.7 µM | 17.6 µM and 15.6 µM | 21.1 µM and 19 µM | 13.3 µM and 12.8 µM | 37.4 µM and 25.7 µM | 38.3 µM and 30.3 µM | 9.04 µM and 6.4 µM | 10.1 µM and 4.82 µM | 2900 nM and 1180 nM |
| COc1ccc2c(CCN)c(C(=O)O)[nH]c2c1 | > 100 µM | > 100 µM | > 100 µM | > 100 µM | > 100 µM | > 100 µM | > 100 µM | > 100 µM | > 100 µM | > 100 µM |  |  |
| COC(=O)[C@]1(c2cc3ccccc3n2S(=O)(=O)c2ccccc2)CC2CN(C(C)=O)C1CC2=O (some centres not stated) | 4.2 µM | 23.4 µM | > 40.4 µM | 14 µM | 4.55 µM | 10.9 µM | 4.62 µM | 21.7 µM | 16.4 µM | 7.05 µM |  |  |
| O=C(O)c1cc2ccccc2c(N=Nc2ccc(S(=O)(=O)Nc3nccs3)cc2)c1O | > 100 µM | > 100 µM | > 100 µM | > 100 µM | > 100 µM | > 100 µM | > 100 µM | > 100 µM | > 100 µM | > 100 µM |  |  |
| COc1ccc2nc3ccc(OC)cc3c(SCCO)c2c1 | > 69.8 µM | > 100 µM | > 80.3 µM | > 100 µM | > 48.2 µM | > 100 µM | > 34.9 µM | > 100 µM | > 100 µM | > 100 µM |  |  |
| COc1cc(C2c3cc4c(cc3[C@@H](Nc3ccccc3)C3COC[C@H]23)OCO4)cc(OC)c1O (some centres not stated) | 19.8 µM | > 100 µM | > 100 µM | 68.9 µM | 45.5 µM | 5 µM | 25.8 µM | > 100 µM | > 100 µM | > 100 µM |  |  |
| CCOC(=O)C1=CNC(C(=O)OCC)C1c1cccn1-c1ccc(Cl)cc1[N+](=O)[O-] (configuration not stated) | 35.7 µM | 54.9 µM | 62.5 µM | 30.3 µM | 30.8 µM | 61.3 µM | 35.2 µM | > 100 µM | 53.6 µM | > 100 µM |  |  |
| CN(C)CCNC(=O)c1cccc2c(NCCN(C)C)c3ccccc3nc12 | 3.9 µM | 21.9 µM | 25.7 µM | 13.6 µM | 5.34 µM | 3.91 µM | 2.97 µM | 40.2 µM | 13.2 µM | > 83.6 µM |  |  |
| CC(O)c1cc2c(s1)C(=O)c1sccc1C2=O (configuration not stated) | 0.485 µM | 0.459 µM | 0.59 µM | 0.0362 µM | 0.597 µM | 0.268 µM | 0.602 µM | 4.18 µM | 0.406 µM | 0.879 µM |  |  |
| COC(=O)CCC(=O)NC1=C(Nc2ccc(OC)cc2)C(=O)c2ccccc2C1=O | 25 µM | 85.3 µM | 60.3 µM | 3.57 µM | 30.1 µM | 21.1 µM | 24.3 µM | 88.1 µM | 33.2 µM | 40.4 µM |  |  |
| CCSc1sc(=Nc2ccc(N=c3sc(C)c(SC)s3)cc2)sc1-c1ccc(C)cc1 | > 100 µM | > 100 µM | > 100 µM | > 100 µM | > 100 µM | > 100 µM | > 100 µM | > 100 µM | > 100 µM | > 100 µM |  |  |
| CCCN(CCCC(NC(C)=O)C(=O)NCc1ccccc1)C(=O)N(CCCl)N=O (configuration not stated) | 29 µM | 83.4 µM | > 100 µM | 37.8 µM | > 66.7 µM | 23.6 µM | 29.2 µM | 63.1 µM | 19.8 µM | > 100 µM |  |  |
| O=S(=O)(O)c1cc(O)c2c(N=Cc3ccccc3O)cc(S(=O)(=O)O)cc2c1 | > 100 µM | > 100 µM | > 100 µM | > 100 µM | > 100 µM | > 100 µM | > 100 µM | > 100 µM | > 100 µM | > 100 µM |  |  |
